Assay results taken from publication PMC9226124, “Macrocycle-stabilization of its interaction with 14-3-3 increases plasma membrane localization and activity of CFTR” (Nature Communications, 2022).
“And” between values parts separate entries of the source, which are not always exact repeats. Equal values may be shown once.

Tests used:
[1] = molecular target: T1, 14-3-3β/CFTRpS753pS768 complex (Homo sapiens, UniProt P13569+P31946); experiment: FP assay, 14-3-3β titration at constant compound concentration (apparent KD); assay type: binding
T1 construct: His6 (cleaved yes); made in house; peptide synthetic
T1 sequence (P31946 whole entry): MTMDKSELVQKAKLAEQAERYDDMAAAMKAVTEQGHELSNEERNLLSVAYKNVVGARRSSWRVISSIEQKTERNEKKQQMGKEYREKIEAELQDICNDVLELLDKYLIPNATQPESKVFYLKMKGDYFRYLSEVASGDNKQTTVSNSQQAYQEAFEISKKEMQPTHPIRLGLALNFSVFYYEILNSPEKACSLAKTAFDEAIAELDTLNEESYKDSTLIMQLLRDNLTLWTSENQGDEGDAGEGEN
T1 sequence (P13569 747-774 limits assumed): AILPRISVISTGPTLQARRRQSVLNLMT
Procedure: FC-A (100 µM) was added as a positive control and DMSO as the negative control. […] Background polarization was subtracted from all values, n = 3 technical replicates. […] Source data are provided as a Source Data file. […]
The FITC-labeled peptides were dissolved in FP buffer (10 mM HEPES pH 7.4, 150 mM NaCl, 0.1% Tween20, 1 mg/mL BSA) to a final concentration of 100 nM or 10 nM. […] The dilution series were made in 384 Corning Black Round Bottom well plates and their polarization was measured with a Tecan Infinite F500 plate reader (ex. = 485 nm, em. = 535 nm). The method of fitting of the curves was: “log(agonist) vs. response – Variable slope (four parameters)” from GraphPad Prism. The equation is Y = Bottom + (Top-Bottom)/(1 + 10^((LogEC50-X)*HillSlope)).
from the hit validation library.
f the compound, 100 µM FC-A, or both compound and FC-A, 100 µM each. Background polarization was subtracted f
rom all values, n=3 technical replicates.
Source data are provided as a Source Data file.

[2] = molecular target: T2, FITC-labeled CFTRpS753pS768 peptide (no 14-3-3) (Homo sapiens, UniProt P13569); experiment: Dose-response FP control assay in the absence of 14-3-3; assay type: binding; details: No 14-3-3
T2 construct: made in house; host or cells: synthetic peptide
Procedure: The 14-3-3β concentration used for the FP screening assay was 10 μM (dashed line). c HTS FP assay of the Cyclenium library. The samples contain 100 nM of FITC-CFTR_pS753pS768 peptide, 10 μM 14-3-3β, and 50 μM compound. FC-A (100 µM) was added as a positive control and DMSO as the negative control. Hit compounds are defined as a polarization increase which is higher than 20% of the response of FC-A. Red squares are compounds that appeared positive in the negative control without 14-3-3. […] Background polarization was subtracted from all values, n = 3 technical replicates. Compounds selected for further analysis are indicated with an asterisk. e Polarization in the absence of 14-3-3. […] Source data are provided as a Source Data file.
The FITC-labeled peptides were dissolved in FP buffer (10 mM HEPES pH 7.4, 150 mM NaCl, 0.1% Tween20, 1 mg/mL BSA) to a final concentration of 100 nM or 10 nM. For the dose-response assays, a 14-3-3β concentration of 10 μM was used while titrating the compounds in a two-times dilution series and, for the other assays, a dilution series of 14-3-3β was made with constant concentration of compound. The dilution series were made in 384 Corning Black Round Bottom well plates and their polarization was measured with a Tecan Infinite F500 plate reader (ex. = 485 nm, em. = 535 nm). The method of fitting of the curves was: “log(agonist) vs. response – Variable slope (four parameters)” from GraphPad Prism. The equation is Y = Bottom + (Top-Bottom)/(1 + 10^((LogEC50-X)*HillSlope)).

N=C(N)NCCCC1NC(=O)C(CCCCN)NCc2ccccc2Sc2ccccc2CNC(=O)C(Cc2ccc(O)cc2)NC1=O (stereo not drawn) [CY001951]
Fluorescence polarization signal, 14-3-3β titration ([1]; CY compound (100 μM), 14-3-3β concentration 119.2 pM): -2.333 | Fluorescence polarization signal, 14-3-3β titration ([1]; CY compound (100 μM), 14-3-3β concentration 2.44141e-7 M): 10.6667 and 8.667 | Fluorescence polarization signal, 14-3-3β titration ([1]; CY compound (100 μM), 14-3-3β concentration 4.88281e-7 M): 15.6667 and 13.6667 | Fluorescence polarization signal, 14-3-3β titration ([1]; CY compound (100 μM), 14-3-3β concentration 9.76563e-7 M): 27.6667 and 26.6667 and 29.6667 | Fluorescence polarization signal, 14-3-3β titration ([1]; CY compound (100 μM), 14-3-3β concentration 1.95313e-6 M): 40.6667 and 36.6667 | Fluorescence polarization signal, 14-3-3β titration ([1]; CY compound (100 μM), 14-3-3β concentration 3.90625e-6 M): 51.6667 and 49.6667 and 46.6667 | Fluorescence polarization signal, 14-3-3β titration ([1]; CY compound (100 μM), 14-3-3β concentration 7.8125e-6 M): 63.6667 and 58.6667 and 54.6667 | Fluorescence polarization signal, 14-3-3β titration ([1]; CY compound (100 μM), 14-3-3β concentration 1.5625e-5 M): 72.6667 and 68.6667 and 66.6667 | Fluorescence polarization signal, 14-3-3β titration ([1]; CY compound (100 μM), 14-3-3β concentration 3.125e-5 M): 82.6667 and 80.6667 | Fluorescence polarization signal, 14-3-3β titration ([1]; CY compound (100 μM), 14-3-3β concentration 6.25e-5 M): 93.6667 and 92.6667 and 96.6667 | Fluorescence polarization signal, 14-3-3β titration ([1]; CY compound (100 μM), 14-3-3β concentration 0.000125 M): 115.667 and 110.667 and 114.667 | Fluorescence polarization signal, 14-3-3β titration ([1]; CY compound (100 μM), 14-3-3β concentration 0.00025 M): 126.667 and 124.667 and 128.667 | Fluorescence polarization signal, 14-3-3β titration ([1]; CY compound (100 μM), 14-3-3β concentration 0.0005 M): 148.667 and 147.667 | Fluorescence polarization signal, 14-3-3β titration ([1]; FC-A + CY compound, 14-3-3β concentration 1.52588e-8 M): 4.333 and 2.333 and 3.333 | Fluorescence polarization signal, 14-3-3β titration ([1]; FC-A + CY compound, 14-3-3β concentration 6.10352e-8 M): 10.3333 and 8.333 | Fluorescence polarization signal, 14-3-3β titration ([1]; FC-A + CY compound, 14-3-3β concentration 1.2207e-7 M): 16.3333 and 18.3333 and 15.3333 | Fluorescence polarization signal, 14-3-3β titration ([1]; FC-A + CY compound, 14-3-3β concentration 2.44141e-7 M): 30.3333 and 31.3333 and 29.3333 | Fluorescence polarization signal, 14-3-3β titration ([1]; FC-A + CY compound, 14-3-3β concentration 4.88281e-7 M): 47.3333 and 45.3333 and 44.3333 | Fluorescence polarization signal, 14-3-3β titration ([1]; FC-A + CY compound, 14-3-3β concentration 9.76563e-7 M): 71.3333 and 70.3333 and 66.3333 | Fluorescence polarization signal, 14-3-3β titration ([1]; FC-A + CY compound, 14-3-3β concentration 1.95313e-6 M): 93.3333 and 85.3333 | Fluorescence polarization signal, 14-3-3β titration ([1]; FC-A + CY compound, 14-3-3β concentration 3.90625e-6 M): 110.333 and 108.333 and 107.333 | Fluorescence polarization signal, 14-3-3β titration ([1]; FC-A + CY compound, 14-3-3β concentration 7.8125e-6 M): 119.333 and 118.333 and 122.333 | Fluorescence polarization signal, 14-3-3β titration ([1]; FC-A + CY compound, 14-3-3β concentration 1.5625e-5 M): 129.333 and 131.333 and 128.333 | Fluorescence polarization signal, 14-3-3β titration ([1]; FC-A + CY compound, 14-3-3β concentration 3.125e-5 M): 139.333 and 142.333 and 140.333 | Fluorescence polarization signal, 14-3-3β titration ([1]; FC-A + CY compound, 14-3-3β concentration 6.25e-5 M): 148.333 and 150.333 | Fluorescence polarization signal, 14-3-3β titration ([1]; FC-A + CY compound, 14-3-3β concentration 0.000125 M): 156.333 and 152.333 | Fluorescence polarization signal, 14-3-3β titration ([1]; FC-A + CY compound, 14-3-3β concentration 0.00025 M): 161.333 and 163.333 and 160.333 | Fluorescence polarization signal, 14-3-3β titration ([1]; FC-A + CY compound, 14-3-3β concentration 0.0005 M): 171.333 and 173.333 | FP signal ([2]; compound 476.8 pM): 3 | FP signal ([2]; compound 953.7 pM): 3 | FP signal ([2]; compound 1.90735e-9 M): 4 | FP signal ([2]; compound 3.8147e-9 M): 4 | FP signal ([2]; compound 7.6294e-9 M): 3 | FP signal ([2]; compound 1.52588e-8 M): 5 | FP signal ([2]; compound 3.05176e-8 M): 4 | FP signal ([2]; compound 6.10352e-8 M): 5 | FP signal ([2]; compound 1.2207e-7 M): 4 | FP signal ([2]; compound 2.44141e-7 M): 4 | FP signal ([2]; compound 4.88281e-7 M): 5 | FP signal ([2]; compound 9.76563e-7 M): 6 | FP signal ([2]; compound 1.95313e-6 M): 6 | FP signal ([2]; compound 3.90625e-6 M): 6 | FP signal ([2]; compound 7.8125e-6 M): 7 | FP signal ([2]; compound 1.5625e-5 M): 9 | FP signal ([2]; compound 3.125e-5 M): 16 | FP signal ([2]; compound 6.25e-5 M): 33 | FP signal ([2]; compound 0.000125 M): 73 | FP signal ([2]; compound 0.00025 M): 143 | FP signal ([2]; compound 0.0005 M): 201 | FP signal ([2]; compound 0.001 M): 252

NCCCCC1NCc2ccccc2Sc2ccccc2CNC(=O)C(Cc2cccc(Cl)c2)NC(=O)C(Cc2ccc(O)cc2)NC1=O (stereo not drawn) [CY007288]
FP signal ([2]; compound 476.8 pM): 6 | FP signal ([2]; compound 953.7 pM): 6 | FP signal ([2]; compound 1.90735e-9 M): 5 | FP signal ([2]; compound 3.8147e-9 M): 4 | FP signal ([2]; compound 7.6294e-9 M): 7 | FP signal ([2]; compound 1.52588e-8 M): 6 | FP signal ([2]; compound 3.05176e-8 M): 5 | FP signal ([2]; compound 6.10352e-8 M): 4 | FP signal ([2]; compound 1.2207e-7 M): 4 | FP signal ([2]; compound 2.44141e-7 M): 5 | FP signal ([2]; compound 4.88281e-7 M): 6 | FP signal ([2]; compound 9.76563e-7 M): 6 | FP signal ([2]; compound 1.95313e-6 M): 5 | FP signal ([2]; compound 3.90625e-6 M): 8 | FP signal ([2]; compound 7.8125e-6 M): 9 | FP signal ([2]; compound 1.5625e-5 M): 16 | FP signal ([2]; compound 3.125e-5 M): 30 | FP signal ([2]; compound 6.25e-5 M): 55 | FP signal ([2]; compound 0.000125 M): 97 | FP signal ([2]; compound 0.00025 M): 149 | FP signal ([2]; compound 0.0005 M): 194 | FP signal ([2]; compound 0.001 M): 224

NCCCC1NCc2ccccc2Sc2ccccc2CNC(=O)C(Cc2c[nH]c3ccccc23)NC(=O)C(Cc2ccccc2)NC1=O (stereo not drawn) [CY007345]
FP signal ([2]; compound 476.8 pM): 5 | FP signal ([2]; compound 953.7 pM): 5 | FP signal ([2]; compound 1.90735e-9 M): 4 | FP signal ([2]; compound 3.8147e-9 M): 7 | FP signal ([2]; compound 7.6294e-9 M): 5 | FP signal ([2]; compound 1.52588e-8 M): 4 | FP signal ([2]; compound 3.05176e-8 M): 4 | FP signal ([2]; compound 6.10352e-8 M): 7 | FP signal ([2]; compound 1.2207e-7 M): 6 | FP signal ([2]; compound 2.44141e-7 M): 5 | FP signal ([2]; compound 4.88281e-7 M): 6 | FP signal ([2]; compound 9.76563e-7 M): 7 | FP signal ([2]; compound 1.95313e-6 M): 8 | FP signal ([2]; compound 3.90625e-6 M): 14 | FP signal ([2]; compound 7.8125e-6 M): 28 | FP signal ([2]; compound 1.5625e-5 M): 52 | FP signal ([2]; compound 3.125e-5 M): 90 | FP signal ([2]; compound 6.25e-5 M): 137 | FP signal ([2]; compound 0.000125 M): 191 | FP signal ([2]; compound 0.00025 M): 224 | FP signal ([2]; compound 0.0005 M): 238 | FP signal ([2]; compound 0.001 M): 248

N=C(N)NCCCC1NCc2ccccc2Sc2ccccc2CNC(=O)C(Cc2ccc(O)cc2)NC(=O)C(CCCN)NC1=O (stereo not drawn) [CY007424]
stabilization factor (increase of apparent affinity of CFTR peptide to 14-3-3) ([1]; 100 μM compound, vs […] μM without compound): more than 300 x | FP signal ([2]; compound 476.8 pM): 4 | FP signal ([2]; compound 953.7 pM): 5 | FP signal ([2]; compound 1.90735e-9 M): 5 | FP signal ([2]; compound 3.8147e-9 M): 7 | FP signal ([2]; compound 7.6294e-9 M): 4 | FP signal ([2]; compound 1.52588e-8 M): 7 | FP signal ([2]; compound 3.05176e-8 M): 6 | FP signal ([2]; compound 6.10352e-8 M): 5 | FP signal ([2]; compound 1.2207e-7 M): 5 | FP signal ([2]; compound 2.44141e-7 M): 7 | FP signal ([2]; compound 4.88281e-7 M): 7 | FP signal ([2]; compound 9.76563e-7 M): 7 | FP signal ([2]; compound 1.95313e-6 M): 6 | FP signal ([2]; compound 3.90625e-6 M): 12 | FP signal ([2]; compound 7.8125e-6 M): 27 | FP signal ([2]; compound 1.5625e-5 M): 52 | FP signal ([2]; compound 3.125e-5 M): 122 | FP signal ([2]; compound 6.25e-5 M): 193 | FP signal ([2]; compound 0.000125 M): 244 | FP signal ([2]; compound 0.00025 M): 263 | FP signal ([2]; compound 0.0005 M): 257 | FP signal ([2]; compound 0.001 M): 271
